Patent US20230364109A1, “GANAXOLONE FOR USE IN TREATMENT OF SUPER REFRACTORY STATUS EPILEPTICUS” (MARINUS PHARMACEUTICALS, INC., priority 2020, published 2023)

Key:
[1] = tested on: patients with super refractory SE; settings: Phase 3, randomized, double-blind, placebo-controlled; cited from earlier work
[2] = tested on: super refractory status epilepticus; settings: for response of SRSE to treatment given before GNX: same patient, before pentobarbitol coma or during it (ACTH)
[3] = tested on: SE; experiment: ganaxolone intravenous bolus plus continuous infusion in SE (inventors' earlier finding); assay type: in vivo; settings: plasma concentration 500 ng/ml or higher for at least about 8 hours
Excerpt: As described and exemplified herein, the inventors believe that ganaxolone holds promise as an effective therapy for SRSE. […] However, as discussed above, SRSE patients are an extremely ill subset of patients in which SE continues or recurs despite therapy with anesthetic agents (e.g., midazolam, propofol, ketamine, or barbiturate). […] When this occurs, the patient is typically then re-administered anesthetic agents at doses to cause burst suppression and to induce coma. As such, patients are typically weaned off anesthetics very slowly and typically by reducing anesthetics by no more than about 20% per day.

[4] = target: T1, progesterone receptor (Homo sapiens, UniProt P06401); experiment: activation of the progesterone receptor (hormonal activity); settings: directly or via metabolic conversion
T1 sequence (P06401 1-933): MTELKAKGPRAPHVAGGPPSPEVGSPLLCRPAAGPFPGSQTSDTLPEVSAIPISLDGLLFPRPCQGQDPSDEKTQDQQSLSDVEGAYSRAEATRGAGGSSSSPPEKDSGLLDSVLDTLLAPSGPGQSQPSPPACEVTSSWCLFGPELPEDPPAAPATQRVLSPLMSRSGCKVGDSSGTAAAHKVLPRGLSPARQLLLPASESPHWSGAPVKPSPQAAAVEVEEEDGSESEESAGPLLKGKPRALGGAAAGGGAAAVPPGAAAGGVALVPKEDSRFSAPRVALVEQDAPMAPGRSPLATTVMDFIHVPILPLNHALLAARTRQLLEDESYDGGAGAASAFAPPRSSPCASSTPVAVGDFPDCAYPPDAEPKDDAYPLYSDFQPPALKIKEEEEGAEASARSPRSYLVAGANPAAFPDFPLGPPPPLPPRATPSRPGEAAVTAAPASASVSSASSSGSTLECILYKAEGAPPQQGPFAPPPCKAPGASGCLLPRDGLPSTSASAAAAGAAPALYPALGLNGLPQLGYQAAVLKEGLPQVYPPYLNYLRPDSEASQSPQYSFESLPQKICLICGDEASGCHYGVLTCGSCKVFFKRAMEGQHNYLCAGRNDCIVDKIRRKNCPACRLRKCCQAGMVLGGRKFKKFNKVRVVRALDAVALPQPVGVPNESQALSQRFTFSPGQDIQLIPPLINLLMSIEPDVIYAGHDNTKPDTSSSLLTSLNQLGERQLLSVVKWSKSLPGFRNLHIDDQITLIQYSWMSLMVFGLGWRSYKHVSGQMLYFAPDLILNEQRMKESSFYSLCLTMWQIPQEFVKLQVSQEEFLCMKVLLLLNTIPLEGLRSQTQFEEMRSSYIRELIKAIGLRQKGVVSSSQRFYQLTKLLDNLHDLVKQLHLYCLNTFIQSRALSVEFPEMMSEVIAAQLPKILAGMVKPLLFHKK
Excerpt: Ganaxolone (3α-hydroxy-3β-methyl-5α-pregnan-20-one) is a 3β-methylated synthetic analogue of the endogenous neurosteroid allopregnanolone with similar biological activity (Carter et al., (1997), The Journal of Pharmacology and Experimental Therapeutics, 280:1284-1295), but it is designed to not activate nuclear (classical) progesterone receptors.

[5] = solubility of ganaxolone; assay type: physicochemical
Procedure: Ganaxolone is insoluble in water. […] Ganaxolone has a relatively long half-life - approximately 20 hours in human plasma following oral administration (Nohria, V. and Giller, E., Neurotherapeutics, (2007) 4(1): 102-105). Furthermore, ganaxolone has a short Tmax, which means that therapeutic blood levels are reached quickly.
Ganaxolone formulations suitable for parenteral administration in the methods of the present invention may comprise physiologically acceptable sterile aqueous or non-aqueous solutions, dispersions, suspensions or emulsions, and sterile powders for reconstitution into sterile injectable solutions or dispersions. Examples of suitable aqueous and non-aqueous carriers, diluents, solvents, or vehicles including water, ethanol, polyols (propylene glycol, polyethylene-glycol, glycerol, cremophor and the like), suitable mixtures thereof, vegetable oils (such as olive oil) and injectable organic esters such as ethyl oleate. Additionally, ganaxolone can be dissolved at concentrations of >1 mg/ml using water soluble beta cyclodextrins (e.g. beta-sulfobutyl-cyclodextrin and 2-hydroxypropylbetacyclodextrin). A particularly suitable cyclodextrin is a substituted-β-cyclodextrin is Captisol®. […]

[6] = safety in the ganaxolone clinical development program; assay type: in vivo, human
Excerpt: In the completed placebo-controlled Phase 1, 2, and 3 studies, 0.32% of subjects who received ganaxolone and 0.46% of subjects who received placebo developed elevated LFTs during the study (>3x ULN AST and/or ALT). A subject participating in the ganaxolone paediatric epilepsy study developed liver failure, which was not considered to be related to ganaxolone. The subject was diagnosed with short bowel syndrome, liver steatosis and IgG-cholangitis, which were considered to be the causal factors for the subject’s liver failure. There have been no other cases of Hy’s Law or liver failure in the ganaxolone development program. […] After cessation of the dosing, plasma ganaxolone levels are expected to drop rapidly, but it is possible that low sub-therapeutic levels persist for several days as ganaxolone is slowly released from tissues.
(§1) Ganaxolone has been administered to infants with severe forms of epilepsy as early as 4 months of age. In clinical trials involving administration of ganaxolone over several weeks, the study drug has been tapered off over a 1 to 2-week period.

[7] = toxicology studies in animals focusing on prenatal and neonatal development; assay type: in vivo
Excerpt: as §1

[8] = tested on: status epilepticus; experiment: Case Report 1: IV to enteric GNX in a person with SE; assay type: in vivo, human
Excerpt: FIGS. 3A-3C show video EEGs in the patient described in Example 2 on day 1 (FIG. 3A), day 2 (FIG. 3B), and day 5 (FIG. 3C). […] Double banana bipolar montage: LFF 1 Hz, HFF 70 Hz; sensitivity, 15 µV/mm; time base, 30 mm/s. EEG, electroencephalogram; HFF, high-frequency filter; LFF, low-frequency filter.
A person with a history of sporadic primarily febrile and rare afebrile convulsive seizures in early childhood had been seizure-free for 10 years off medication until they began to have focal seizures with generalization. Seizure semiology was characterized by eye fluttering with rapid bilateral involvement at times with leftward head/eye deviation as clusters prior to generalization. They had recurrent seizures over the first three weeks and was admitted to an outside hospital for SE requiring intubation. […] They were transferred to the inpatient pediatric rehabilitation unit after being seizure-free for one month on 5 antiseizure medications (cannabidiol, perampanel, phenobarbital, lacosamide, lorazepam), pyridoxine, ketogenic diet, anakinra, and menstrual suppression.
A thorough infectious, metabolic, genetic, vascular and autoimmune evaluation was non-diagnostic. While in the inpatient rehabilitation unit they developed a fever of 41.7° C. and respiratory viral panel was positive for parainfluenza. SE returned requiring transfer to the ICU for midazolam and pentobarbital infusions. […] They were seizure-free for two days after drips were weaned before seizures returned prompting vagus nerve stimulator placement and a prolonged 2-week course of IV pentobarbital titrated to EEG burst suppression. As pentobarbital was weaned off, convulsive seizures returned.
They were granted E-IND approval for a trial of IV to enteric GNX. GNX was administered using an IV bolus followed by infusion over 4 days (with boluses as needed for breakthrough seizures): on day 1 pentobarbital was discontinued; by day 3 clinical and electrographic seizures stopped.
One month after ganaxolone initiation, the patient was transferred to inpatient rehabilitation services and they were discharged home 1 month later. They were weaned off the ketogenic diet, anakinra, and felbamate with minimal breakthrough clinical seizures (only in setting of intercurrent illness or decreasing ASMs). […] Patient continues to be on ganaxolone and 4 other ASMs (valproic acid, brivaracetam, lorazepam, perampanel). See, FIGS. 1, 2, and 3A-3C.

[9] = tested on: super refractory status epilepticus; experiment: Case Report 3: IV-to-enteric ganaxolone in a person with super refractory status epilepticus (FIRES); assay type: in vivo, human
Excerpt: A previously healthy person presented with encephalopathy and fever and developed super refractory status epilepticus concordant with fever-induced refractory […] (FIRES). On administration, the patient presented in the emergency department (ED) with fever, abdominal pain, and encephalopathy. Patient was admitted to pediatric intensive care unit (PICU) and placed on video-electroencephalogram (vEEG). See, FIG. 4.
Immunomodulatory therapies with IV methylprednisolone and IVIG were initiated concomitantly.
After multiple ASMs, failed attempts to wean pentobarbital, and ketamine and midazolam infusions, they were treated under EIND approval for a trial of IV-to-enteric ganaxolone. Ganaxolone was administered on hospital day 17 using an IV bolus, followed by infusion over 6 days (with boluses as needed for breakthrough seizures) (FIG. 5). Midazolam was discontinued on day 2 of GNX IV protocol; ketamine was discontinued by day 8 with the assistance of phenobarbital loads and maintenance Anakinra was initiated on day 2 of GNX IV protocol (hospital day 19).

[10] = tested on: γ-aminobutyric acid type A (GABAA) receptors; settings: Carter et al 1997; cited from earlier work
[11] = cited from earlier work
[12] = tested on: CYP3A⅘; experiment: metabolism and interaction with strong CYP inducers (in vitro data and human PK data)

## CC(=O)[C@H]1CC[C@H]2[C@@H]3CC[C@H]4C[C@H](O)CC[C@]4(C)[C@H]3CC[C@]12C [brexanolone]
[1]
  efficacy over placebo in SRSE: failed to show efficacy over placebo

## CN1C(=O)CN=C(c2ccccc2)c2cc(Cl)ccc21 [diazepam]
[2]
  response of SRSE to treatment given before GNX: No response

## CCC1(C)CC(=O)NC1=O (stereo not drawn) [ethoxsuccimide]
[2]
  response of SRSE to treatment given before GNX: No response

## CC(=O)[C@H]1CC[C@H]2[C@@H]3CC[C@H]4C[C@](C)(O)CC[C@]4(C)[C@H]3CC[C@]12C [ganaxolone, 3α-hydroxy-3β-methyl-5α-pregnan-20-one]
[3]
  suppression of SE: rapid and continued suppression of SE
[4]
  activation of the progesterone receptor: does not activate the progesterone receptor directly or indirectly
[5]; aqueous with cosolvent or surfactant or cyclodextrin, beta-sulfobutyl-cyclodextrin, 2-hydroxypropylbetacyclodextrin, read-out: concentration dissolved using water soluble beta cyclodextrins
  solubility: > 1000 µg/mL
[5]; water
  solubility in water: insoluble
[6]; clinical trials, tapered off over 1 to 2 weeks
  withdrawal symptoms after cessation: no reports of withdrawal symptoms
[6]; completed placebo-controlled Phase 1, 2, and 3 studies
  subjects who developed elevated LFTs (>3x ULN AST and/or ALT): 0.32%
[6]; development program overall
  ECG intervals, vital signs, physical or neurological examinations: no clinically significant trends
[6]; ganaxolone and its metabolites
  excretion to breast milk: excreted to breast milk
[7]
  prenatal and neonatal developmental toxicity: have not demonstrated toxicities
[8]; IV bolus followed by infusion over 4 days
  day by which clinical and electrographic seizures stopped: ≤ 3 days
[8]; day 5 of protocol, transition from IV to enteric GNX
  video EEG finding (FIG. 3C): cessation of seizures
[8]; from Day 5
  seizure status after transition from IV to enteric GNX: has remained seizure-free
[8]; more than one year later
  durability of response: response to ganaxolone and seizure cessation were sustained
[9]; IV bolus, infusion over 6 days
  day of GNX IV protocol on which midazolam was discontinued: 2 days
[9]; at 6 weeks, transfer from ICU to the floor
  clinical status: alert and was responsive with some vocalizations
[9]; by 4 weeks after admission
  clinical status: more responsive
[9]; with the assistance of phenobarbital loads and maintenance
  day by which ketamine was discontinued: ≤ 8 days
[2]; after IV GNX bolus 0.64 mg/kg
  time to improvement on EEG: ≤ 10 min
[2]; four weeks after discharge, on oral GNX, 20 seizures per day at baseline
  clinical seizures after hospitalization: no clinical seizures
[2]; in vivo, iv
  time of IV GNX until extubation: 48 h
[10]
  action on GABAA receptors in the CNS: positive allosteric modulator
[11]; human plasma, oral administration, Nohria and Giller 2007
  half-life: approximately 20 hours
[11]; in contrast to allopregnanolone
  oral bioavailability: orally bioavailable
[11]; in vivo
  Tmax: short
[12]; human, in vivo
  metabolizing enzyme: metabolized by CYP3A⅘
[12]; subjects taking strong CYP inducers (carbamazepine and phenytoin)
  lowering in overall ganaxolone levels and exposure: ~45%

## O=C1Nc2ccc(Cl)cc2C(c2ccccc2Cl)=NC1O (stereo not drawn) [lorazepam]
[2]
  response of SRSE to treatment given before GNX: No response

## Cc1ncc2n1-c1ccc(Cl)cc1C(c1ccccc1F)=NC2 [midazolam]
[2]
  response of SRSE to treatment given before GNX: No response

## N#Cc1ccccc1-c1cc(-c2ccccn2)cn(-c2ccccc2)c1=O [perampanel]
[2]
  response of SRSE to treatment given before GNX: No response

## CCCC(CCC)C(=O)O [valproic acid]
[2]; female, human, in vivo
  serum level: 106 µg/mL
